# Assay results published in patent publication US7282556B2, “Polynucleotides and polypeptides relating to the modulation of SIRPα-CD47” (Emory University, priority 2001, dated 2007).
# Where a SMILES comes first, the peptide text is derived from it. Bridges are numbered along the chain shown (N, C = ends).
# How the values were obtained:
# [1] = test system: mAb C5/D5; assay: Peptide competition of phage binding to C5/D5 by ELISA; settings: up to 10 mM
# Description: To mimic the possible constrained structure in phage, in vitro oxidation was performed after peptide synthesis to introduce disulfide bonds between Cysteine residues in these peptides. […] There are total four tryptophan (W) residues in CD47. W2 is part of the signal peptide and therefore is not present in the mature protein. W58 is present in the N-terminus extracellular IgV-like domain of CD47 and is conserved among many IgV super family members. W136 is also located in the putative extracellular domain whereas W157 is thought to be in a transmembrane region of the protein (Lindberg, et al., J. Cell Biol., 123(2): 485-96, 1993). Amino acids Arginine and Valine (RV/L), present in many selected CL10 and LL9 phages are adjacent in CD47 at amino acid position 132-133, two amino acids upstream from W136. Both amino acids R and V are also found close to W58. Thus, the C5/D5-binding sequence on CD47 is likely to comprise several distant residues brought into proximity by the folding of the protein.
# Antibody phage binding assays were performed in microtiter plate wells (Limbro-Titertek, Flow Laboratories) which were coated with relevant antibodies (20 μg/ml) for two hours at room temperature. All subsequent incubations were performed at room temperature. […] Microtiter wells were then analyzed in a microtiter plate reader at 405 nanometers (nm).
# [2] = Solubility of synthesized peptides in aqueous phase; assay type: physicochemical; settings: for solubility: in aqueous phase
# [3] = molecular target: T1, CD47-SIRPα1 binding (CD47-AP / SIRPα1-GST) (Homo sapiens, UniProt P78324); assay: CD47-AP binding to immobilized SIRPα1-GST (alkaline phosphatase activity); settings: SIRPα-GST coated 2 μg/ml, CD47-AP 1-2 μg/ml
# T1 construct: Microtiter plates were coated with SIRPα1 extracellular domain fusion protein (SIRPα1-GST, 1 μg/ml) for 2 hr; A construct consisting of the extracellular domain of human CD47 fused to the catalytic domain of human placental AP; made in house
# T1 sequence (P78324 31-373 limits assumed): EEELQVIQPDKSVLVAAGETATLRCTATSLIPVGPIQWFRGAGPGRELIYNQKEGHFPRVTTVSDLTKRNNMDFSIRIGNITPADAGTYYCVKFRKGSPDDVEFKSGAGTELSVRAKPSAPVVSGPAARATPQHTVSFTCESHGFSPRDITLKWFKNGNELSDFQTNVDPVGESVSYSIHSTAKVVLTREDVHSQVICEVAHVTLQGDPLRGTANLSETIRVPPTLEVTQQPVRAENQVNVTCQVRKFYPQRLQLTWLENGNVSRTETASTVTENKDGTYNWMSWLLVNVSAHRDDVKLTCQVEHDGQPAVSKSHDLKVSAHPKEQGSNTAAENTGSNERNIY
# Description: (§1) FIG. 2C (right panel) is a bar graph that illustrates CD47-AP specifically binds to SIRPα-GST fusion protein but not SIRPβ-GST. In this panel, microtiter plates were coated with either SIRPα-GST or highly similar SIRPβ-GST (10 μg/ml) followed by blocking with BSA. To each well was then added recombinant CD47-AP followed by washing. Bound CD47-AP was then detected by assay for alkaline phosphatase after addition of appropriate substrate.
# FIGS. 6A-6C are graphs that illustrate the effects of synthetic peptides on CD47-SIRPα binding. FIG. 6A illustrates the effect of peptide C5/D5.1 on CD47-SIRPα binding. […] After blocking, CD47-AP was added in the absence or presence of synthetic peptides C5/D5.1 and control peptides C5/D5.4, C5/D5.11 and C5/D5.12 (used as 1 mM each). “*” p<0.01. CD47-AP binding was then detected by assay of alkaline phosphatase activity and normalized with respect to binding in the absence of any peptide (CD47-AP only). FIG. 6B illustrates the effect of dose-dependent inhibition of CD47-SIRPα1 binding by peptide C5/D5.1 performed as in FIG. 6A but with increasing concentrations of peptide as indicated. […] Binding of these proteins were detected by a goat anti-GST antibody followed by peroxidase conjugated anti-goat secondary (for detecting SIRPα1-GST) or directly developed for alkaline phosphatase activity (for detecting CD47-AP). […]
# [4] = molecular target: T2, SIRPβ-GST (Homo sapiens, UniProt O00241); assay: CD47-AP binding to SIRPβ-GST coated wells; settings: FIG. 2C
# T2 construct: The extracellular domain of SIRPα1, SIRPβ1 and GST fusion proteins were produced after transfected into 293E cells; made in house; host or cells: 293E cells
# T2 sequence (O00241 30-371 limits assumed): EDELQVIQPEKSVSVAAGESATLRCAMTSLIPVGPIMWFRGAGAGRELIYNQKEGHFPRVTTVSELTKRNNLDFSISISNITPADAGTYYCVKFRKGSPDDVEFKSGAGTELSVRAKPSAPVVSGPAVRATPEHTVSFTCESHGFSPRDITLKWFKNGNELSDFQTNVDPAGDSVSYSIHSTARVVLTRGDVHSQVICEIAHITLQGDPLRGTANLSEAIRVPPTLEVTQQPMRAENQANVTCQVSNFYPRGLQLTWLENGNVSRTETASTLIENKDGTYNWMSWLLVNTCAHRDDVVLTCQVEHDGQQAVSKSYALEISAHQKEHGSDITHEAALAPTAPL
# Description: as §1
# Since the above results and those of others (Jiang, et al J. Biol. Chem., 274: 559, Seiffert, et al., Blood, 94: 3633, Han, et al., J. Biol. Chem., 275: 37984, Oldenborg, et al., Science, 288: 2051) strongly implicate CD47 as a membrane receptor for SIRPα, experiments were performed to test the direct binding of the IgV loop of CD47 to SIRPα (FIG. 2B). A recombinant CD47 IgV loop fused to alkaline phosphatase (CD47-AP) was constructed as detailed in the methods and expressed in mammalian (CHO) cells in order to allow for proper folding and glycosylation. The expressed CD47-AP fusion protein was then purified by immunoaffinity chromatography using anti CD47 mAb PF3.1-Sepharose. The structure of CD47 IgV domain in the purified CD47-AP was further tested for the ability to react with multiple functionally blocking anti-CD47 extracellular domain-reactive mAbs (Liu, et al., J. Biol. Chem., 276: 40156). […]
Compound,solubility [2] [mM],other results
CRRVIGRVGCGC (listed as Homo sapiens) [C5/D5.3],,inhibitory effect of peptide on phage binding to C5/D5 [1]: no inhibitory effects
"CC[C@H](C)[C@@H]1NC(=O)[C@H](C(C)C)NC(=O)[C@H](CCCNC(=N)N)NC(=O)[C@H](Cc2c[nH]cn2)NC(=O)[C@@H](N)CSSC[C@@H](C(=O)O)NC(=O)[C@H](CCCNC(=N)N)NC(=O)[C@H](C(C)C)NC(=O)[C@H](Cc2c[nH]c3ccccc23)NC(=O)CNC(=O)[C@H]([C@@H](C)O)NC(=O)CNC1=O [C5/D5.11, CHRVIGTGWVRC] (H-CHRVIGTGWVRC-OH; disulfide 1-12; N-terminus and C-terminus assumed)",10,
"CC(C)[C@@H]1NC(=O)[C@H](Cc2c[nH]c3ccccc23)NC(=O)CNC(=O)[C@H](Cc2c[nH]cn2)NC(=O)CNC(=O)[C@@H]2CCCN2C(=O)[C@H](C(C)C)NC(=O)[C@H](CCCNC(=N)N)NC(=O)[C@H](Cc2c[nH]cn2)NC(=O)[C@@H](N)CSSC[C@@H](C(=O)O)NC(=O)[C@H](CCCNC(=N)N)NC1=O [C5/D5.12, CHRVPGHGWVRC] (H-CHRVPGHGWVRC-OH; disulfide 1-12; N-terminus and C-terminus assumed)",1,
"CC[C@H](C)[C@@H]1NC(=O)[C@H](C(C)C)NC(=O)[C@H](CCCNC(=N)N)NC(=O)[C@H](CCC(=O)O)NC(=O)[C@@H](N)CSSC[C@@H](C(=O)O)NC(=O)[C@H](CCCNC(=N)N)NC(=O)[C@H](C(C)C)NC(=O)[C@H](Cc2c[nH]c3ccccc23)NC(=O)CNC(=O)[C@H]([C@@H](C)O)NC(=O)CNC1=O [C5/D5.1, CERVIGTGWVRC] (H-CERVIGTGWVRC-OH; disulfide 1-12; N-terminus and C-terminus assumed)",10,
"CC[C@H](C)[C@H](NC(=O)[C@@H](NC(=O)[C@H](CCCNC(=N)N)NC(=O)[C@@H](N)CCC(=O)O)C(C)C)C(=O)NCC(=O)N[C@H](C(=O)NCC(=O)N[C@@H](Cc1c[nH]c2ccccc12)C(=O)N[C@H](C(=O)N[C@@H](CCCNC(=N)N)C(=O)O)C(C)C)[C@@H](C)O [C5/D5.4, ERVIGTGWVR] (H-ERVIGTGWVR-OH; N-terminus and C-terminus assumed)",10,
CD47-AP: recombinant CD47 IgV loop fused to alkaline phosphatase,,"binding of AP fusion protein to SIRPα-GST (AP activity, OD405) [3]: bound; binding of CD47-AP to SIRPβ-GST [4]: lack of binding"
"CC[C@H](C)[C@@H]1NC(=O)[C@H](C(C)C)NC(=O)CNC(=O)[C@H](CCCNC(=N)N)NC(=O)[C@H](Cc2c[nH]c3ccccc23)NC(=O)[C@H]([C@@H](C)O)NC(=O)[C@H](CCCNC(=N)N)NC(=O)[C@H](C(C)C)NC(=O)CNC(=O)[C@@H](N)CSSC[C@@H](C(=O)O)NC(=O)[C@H](CCC(=O)O)NC1=O [C5/D5.5, CGVRTWRGVIEC] (H-CGVRTWRGVIEC-OH; disulfide 1-12; N-terminus and C-terminus assumed)",2,solubility (in words) [2]: limited solubility
